Reference: ChEMBL document CHEMBL2413072, “Synthesis and in vitro anticancer studies of novel C-2 arylidene congeners of lantadenes” (2013)

Tests used:
Assay type in all cases: functional
[1] = Growth inhibition of human Hs 578T cells assessed as growth inhibition at 10 uM by sulforhodamine B assay; conditions: read-out: GI
MCF7 = assay: Growth inhibition of human MCF7 cells assessed as growth inhibition at 10 uM by sulforhodamine B assay; conditions: read-out: GI
TK-10 = assay: Growth inhibition of human TK10 cells assessed as growth inhibition at 10 uM by sulforhodamine B assay; conditions: read-out: GI
ACHN [2] = assay: Growth inhibition of human ACHN cells assessed as growth inhibition at 10 uM by sulforhodamine B assay; conditions: read-out: GI
786-0 = assay: Growth inhibition of human 786-0 cells assessed as growth inhibition at 10 uM by sulforhodamine B assay; conditions: read-out: GI
SK-OV-3 [3] = assay: Growth inhibition of human SKOV3 cells assessed as growth inhibition at 10 uM by sulforhodamine B assay; conditions: read-out: GI
[4] = Growth inhibition of human NCI-ADR-RES cells assessed as growth inhibition at 10 uM by sulforhodamine B assay; conditions: read-out: GI
OVCAR-8 = assay: Growth inhibition of human OVCAR8 cells assessed as growth inhibition at 10 uM by sulforhodamine B assay; conditions: read-out: GI
HL-60(TB) = assay: Growth inhibition of human HL-60(TB) cells assessed as cell growth at 10 uM by sulforhodamine B assay; conditions: read-out: Activity
OVCAR-4 = assay: Growth inhibition of human OVCAR4 cells assessed as growth inhibition at 10 uM by sulforhodamine B assay; conditions: read-out: GI
IGROV-1 = assay: Growth inhibition of human IGROV1 cells assessed as growth inhibition at 10 uM by sulforhodamine B assay; conditions: read-out: GI
UACC-257 = assay: Growth inhibition of human UACC257 cells assessed as growth inhibition at 10 uM by sulforhodamine B assay; conditions: read-out: GI
SK-MEL-2 = assay: Growth inhibition of human SK-MEL-2 cells assessed as growth inhibition at 10 uM by sulforhodamine B assay; conditions: read-out: GI
SNB-75 [5] = assay: Growth inhibition of human SNB75 cells assessed as growth inhibition at 10 uM by sulforhodamine B assay; conditions: read-out: GI
SF-295 = assay: Growth inhibition of human SF295 cells assessed as growth inhibition at 10 uM by sulforhodamine B assay; conditions: read-out: GI
HCT-116 = assay: Growth inhibition of human HCT116 cells assessed as growth inhibition at 10 uM by sulforhodamine B assay; conditions: read-out: GI
[6] = Growth inhibition of human HCC2998 cells assessed as growth inhibition at 10 uM by sulforhodamine B assay; conditions: HCC 2998, read-out: GI
COLO 205 [7] = assay: Growth inhibition of human COLO205 cells assessed as growth inhibition at 10 uM by sulforhodamine B assay; conditions: read-out: GI
NCI-H522 = assay: Growth inhibition of human NCI-H522 cells assessed as growth inhibition at 10 uM by sulforhodamine B assay; conditions: read-out: GI
NCI-H23 [8] = assay: Growth inhibition of human NCI-H23 cells assessed as growth inhibition at 10 uM by sulforhodamine B assay; conditions: read-out: GI
NCI-H226 [9] = assay: Growth inhibition of human NCI-H226 cells assessed as growth inhibition at 10 uM by sulforhodamine B assay; conditions: read-out: GI
[10] = Growth inhibition of human EKVX cells assessed as growth inhibition at 10 uM by sulforhodamine B assay; conditions: read-out: GI
A549 [11] = assay: Growth inhibition of human A549/ATCC cells assessed as growth inhibition at 10 uM by sulforhodamine B assay; conditions: read-out: GI
CCRF-CEM = assay: Growth inhibition of human CCRF-CEM cells assessed as growth inhibition at 10 uM by sulforhodamine B assay; conditions: read-out: GI
MDA-MB-468 = assay: Growth inhibition of human MDA-MB-468 cells assessed as cell growth at 10 uM by sulforhodamine B assay; conditions: read-out: Activity
MDA-MB-231 = assay: Growth inhibition of human MDA-MB-231 cells assessed as cell growth at 10 uM by sulforhodamine B assay; conditions: read-out: Activity
DU-145 = assay: Growth inhibition of human DU145 cells assessed as cell growth at 10 uM by sulforhodamine B assay; conditions: read-out: Activity
ACHN [12] = assay: Growth inhibition of human ACHN cells assessed as cell growth at 10 uM by sulforhodamine B assay; conditions: read-out: Activity
A498 = assay: Growth inhibition of human A498 cells assessed as cell growth at 10 uM by sulforhodamine B assay; conditions: read-out: Activity
SK-OV-3 [13] = assay: Growth inhibition of human SKOV3 cells assessed as cell growth at 10 uM by sulforhodamine B assay; conditions: read-out: Activity
[14] = Growth inhibition of human NCI-ADR-RES cells assessed as cell growth at 10 uM by sulforhodamine B assay; conditions: read-out: Activity
OVCAR-3 = assay: Growth inhibition of human OVCAR3 cells assessed as cell growth at 10 uM by sulforhodamine B assay; conditions: read-out: Activity
SK-MEL-5 = assay: Growth inhibition of human SK-MEL-5 cells assessed as cell growth at 10 uM by sulforhodamine B assay; conditions: read-out: Activity
SK-MEL-28 = assay: Growth inhibition of human SK-MEL-28 cells assessed as cell growth at 10 uM by sulforhodamine B assay; conditions: read-out: Activity
MDA-MB-435 = assay: Growth inhibition of human MDA-MB-435 cells assessed as cell growth at 10 uM by sulforhodamine B assay; conditions: read-out: Activity
LOX IMVI = assay: Growth inhibition of human LOXIMVI cells assessed as cell growth at 10 uM by sulforhodamine B assay; conditions: read-out: Activity
U-251 = assay: Growth inhibition of human U251 cells assessed as cell growth at 10 uM by sulforhodamine B assay; conditions: read-out: Activity
SNB-75 [15] = assay: Growth inhibition of human SNB75 cells assessed as cell growth at 10 uM by sulforhodamine B assay; conditions: read-out: Activity
SNB-19 = assay: Growth inhibition of human SNB19 cells assessed as cell growth at 10 uM by sulforhodamine B assay; conditions: read-out: Activity
HT-29 = assay: Growth inhibition of human HT-29 cells assessed as cell growth at 10 uM by sulforhodamine B assay; conditions: read-out: Activity
COLO 205 [16] = assay: Growth inhibition of human COLO205 cells assessed as cell growth at 10 uM by sulforhodamine B assay; conditions: read-out: Activity
NCI-H322M = assay: Growth inhibition of human NCI-H322M cells assessed as cell growth at 10 uM by sulforhodamine B assay; conditions: read-out: Activity
NCI-H23 [17] = assay: Growth inhibition of human NCI-H23 cells assessed as cell growth at 10 uM by sulforhodamine B assay; conditions: read-out: Activity
NCI-H226 [18] = assay: Growth inhibition of human NCI-H226 cells assessed as cell growth at 10 uM by sulforhodamine B assay; conditions: read-out: Activity
HOP-92 = assay: Growth inhibition of human HOP92 cells assessed as cell growth at 10 uM by sulforhodamine B assay; conditions: read-out: Activity
[19] = Growth inhibition of human EKVX cells assessed as cell growth at 10 uM by sulforhodamine B assay; conditions: read-out: Activity
HOP-62 = assay: Growth inhibition of human HOP62 cells assessed as cell growth at 10 uM by sulforhodamine B assay; conditions: read-out: Activity
A549 [20] = assay: Growth inhibition of human A549/ATCC cells assessed as cell growth at 10 uM by sulforhodamine B assay; conditions: read-out: Activity

C/C=C(/C)C(=O)O[C@@H]1CC(C)(C)C[C@H]2C3=CC[C@@H]4[C@@]5(C)CCC(=O)C(C)(C)[C@@H]5CC[C@@]4(C)[C@]3(C)CC[C@@]12C(=O)O [LANTADENE A]
inhibition of growth at 10 µM [1]: 21.2% | inhibition of growth at 10 µM (MCF7): 45.3% | inhibition of growth at 10 µM (TK-10): 16.7% | inhibition of growth at 10 µM (ACHN [2]): 46.1% | inhibition of growth at 10 µM (786-0): 55.5% | inhibition of growth at 10 µM (SK-OV-3 [3]): < 10% | inhibition of growth at 10 µM [4]: 26.9% | inhibition of growth at 10 µM (OVCAR-8): 36.3% | growth at 10 µM (HL-60(TB)): -5.42% | inhibition of growth at 10 µM (OVCAR-4): 23.1% | inhibition of growth at 10 µM (IGROV-1): 28.4% | inhibition of growth at 10 µM (UACC-257): 30% | inhibition of growth at 10 µM (SK-MEL-2): 22.9% | inhibition of growth at 10 µM (SNB-75 [5]): 13.1% | inhibition of growth at 10 µM (SF-295): 72.3% | inhibition of growth at 10 µM (HCT-116): 66% | inhibition of growth at 10 µM [6]: 38.6% | inhibition of growth at 10 µM (COLO 205 [7]): 22% | inhibition of growth at 10 µM (NCI-H522): 33.9% | inhibition of growth at 10 µM (NCI-H23 [8]): 42% | inhibition of growth at 10 µM (NCI-H226 [9]): 18% | inhibition of growth at 10 µM [10]: 50.7% | inhibition of growth at 10 µM (A549 [11]): 60.8% | inhibition of growth at 10 µM (CCRF-CEM): 56.4% | growth at 10 µM (MDA-MB-468): 50.8% | growth at 10 µM (MDA-MB-231): 75.7% | growth at 10 µM (DU-145): 82.6% | growth at 10 µM (ACHN [12]): 53.9% | growth at 10 µM (A498): 76.2% | growth at 10 µM (SK-OV-3 [13]): 90.1% | growth at 10 µM [14]: 73.1% | growth at 10 µM (OVCAR-3): 62.6% | growth at 10 µM (SK-MEL-5): 38.7% | growth at 10 µM (SK-MEL-28): 82.7% | growth at 10 µM (MDA-MB-435): 87.8% | growth at 10 µM (LOX IMVI): 61.8% | growth at 10 µM (U-251): 60.1% | growth at 10 µM (SNB-75 [15]): 86.9% | growth at 10 µM (SNB-19): 59.4% | growth at 10 µM (HT-29): 67.9% | growth at 10 µM (COLO 205 [16]): 78% | growth at 10 µM (NCI-H322M): 68.5% | growth at 10 µM (NCI-H23 [17]): 58% | growth at 10 µM (NCI-H226 [18]): 82% | growth at 10 µM (HOP-92): 43.7% | growth at 10 µM [19]: 49.3% | growth at 10 µM (HOP-62): 75.6% | growth at 10 µM (A549 [20]): 39.2%
